Reference: PMC6950969 (Saudi Pharmaceutical Journal : SPJ, 2019)
≈ marks a conversion by molar mass, not a printed value. Structures can show the parent of a compound that is named as a salt.

How the values were obtained:
[1] = tested on: butyrylcholinesterase (BChE); test: BChE inhibition, Ellman's method; type: biochemical; conditions: for Percentile of inhibition ± S.E.M against BChE: 20 µg/mL
[2] = Anti-lipid peroxidation activity
[3] = tested on: Acetylcholinesterase (AChE); test: AChE inhibition, Ellman's method; type: biochemical; conditions: 20 µg/mL
[4] = biological target: hCA I (Homo sapiens, UniProt P00915); test: hCA I inhibition, esterase activity; type: biochemical
[5] = biological target: hCA II (Homo sapiens, UniProt P00918); test: hCA II inhibition, esterase activity; type: biochemical
[6] = tested on: Caco-2 cells; conditions: purified from A. dahurica; ref Liu et al., 2016; cited from earlier work
[7] = tested on: pPI3K and pAkt; conditions: cells Caco-2; ref Liu et al., 2016; cited from earlier work
[8] = tested on: butyrylcholinesterase (BChE); conditions: coumarins from Angelica officinalis L. fruits; ref Ferreira et al., 2006; cited from earlier work

hCA I, sequence (P00915 whole entry): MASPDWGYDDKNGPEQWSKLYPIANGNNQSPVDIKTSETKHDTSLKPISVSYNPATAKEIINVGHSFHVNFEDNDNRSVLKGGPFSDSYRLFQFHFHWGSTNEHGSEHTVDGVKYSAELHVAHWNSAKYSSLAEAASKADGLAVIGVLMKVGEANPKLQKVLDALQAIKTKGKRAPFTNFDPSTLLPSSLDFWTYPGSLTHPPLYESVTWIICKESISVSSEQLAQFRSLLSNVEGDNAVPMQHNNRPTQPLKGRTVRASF

Q: Which results are given for `CC[C@H](/C=C/[C@@H](C)[C@H]1CC[C@H]2[C@@H]3CC=C4C[C@@H](O)CC[C@]4(C)[C@H]3CC[C@]12C)C(C)C` [Stigmasterol]?
A: BChE inhibition activity (in words) [1]: did not show considerable inhibition towards BChE; Percentile of inhibition ± S.E.M against BChE [1]: 13.34 ± 2.99%

Q: Which “IC50 values ± SD, anti-lipid peroxidation (TBA test)” value (“IC50 values ± SD” for short) [2] does the source give for `CC1(C)O[C@H]1COc1c2ccoc2cc2oc(=O)ccc12` [Oxypeucedanin] here?
A: Its value is 91.27 ± 2.76 µg/mL (≈ 319 µM).

Q: What about the “Percentile of inhibition ± S.E.M against AChE” value [3] of the same molecule?
A: The value was 19.36 ± 1.87%.

Q: What about the “Percentile of inhibition ± S.E.M against BChE” value [1] of the same molecule?
A: The value was 36.89 ± 1.23%.

Q: What about the IC50 [4] of the same molecule?
A: Its IC50 is 6.73 µM.

Q: What about the Ki [4] of the same molecule?
A: The Ki was 5.33 ± 1.08 µM.

Q: What about the IC50 [5] of the same molecule?
A: The IC50 was 5.29 µM.

Q: And the Ki [5]?
A: The Ki was 8.85 ± 1.05 µM.

Q: For Oxypeucedanin hydrate monoacetate, which “cancer cell migration (in words)” value [6] is on record?
A: Its value is “inhibition of cancer cell migration”.

Q: What about the “expression of pPI3K and pAkt (in words)” value [7] of the same molecule?
A: The value was “significant down-regulation”.

Q: For `COc1c2occc2cc2ccc(=O)oc12` [xanthotoxin], which “inhibition towards butyrylcholinesterase (BChE) (in words)” value (from here on “inhibition towards butyrylcholinesterase”) [8] is on record?
A: The value was “strong inhibition”.

Q: For `COc1c2ccoc2cc2oc(=O)ccc12` [Bergapten], which “IC50 values ± SD” value [2] is on record?
A: Its value is 56.99 ± 3.87 µg/mL (≈ 264 µM).

Q: What about the “Percentile of inhibition ± S.E.M against AChE” value [3] of the same molecule?
A: Its value is 18.98 ± 2.98%.

Q: What about the “Percentile of inhibition ± S.E.M against BChE” value [1] of the same molecule?
A: Its value is 31.00 ± 3.02%.

Q: What about the IC50 [4] of the same molecule?
A: The IC50 was 7.29 µM.

Q: And the Ki [4]?
A: The Ki was 4.79 ± 0.57 µM.

Q: What about the IC50 [5] of the same molecule?
A: Its IC50 is 8.25 µM.

Q: And the Ki [5]?
A: The Ki was 12.8 ± 1.92 µM.

Q: And the “inhibition towards butyrylcholinesterase” value [8]?
A: Its value is “strong inhibition”.

Q: Which “IC50 values ± SD” value [2] does the source give for `C[C@@H]1O[C@@H](OC[C@H]2O[C@@H](Oc3c(-c4ccc(O)c(O)c4)oc4cc(O)cc(O)c4c3=O)[C@H](O)[C@@H](O)[C@@H]2O)[C@H](O)[C@H](O)[C@H]1O` [Rutin, reference compound] here?
A: The value was 9.65 ± 3.09 µg/mL (≈ 15.8 µM).

Q: For `CC[C@H](CC[C@@H](C)[C@H]1CC[C@H]2[C@@H]3CC=C4C[C@@H](O)CC[C@]4(C)[C@H]3CC[C@]12C)C(C)C` [β-Sitosterol], which “IC50 values ± SD” value [2] is on record?
A: The value was 492.30 ± 2.03 µg/mL (≈ 1190 µM).

Q: And the “BChE inhibition activity (in words)” value [1]?
A: The value was “did not show considerable inhibition towards BChE”.

Q: And the “Percentile of inhibition ± S.E.M against BChE” value [1]?
A: The value was 9.93 ± 1.78%.

Q: For `O=C(/C=C/c1ccc(O)c(O)c1)O[C@@H]1C[C@](O)(C(=O)O)C[C@@H](O)[C@H]1O` [Chlorogenic acid, reference compound], which “IC50 values ± SD” value [2] is on record?
A: Its value is 12.98 ± 4.89 µg/mL (≈ 36.6 µM).

Q: Which “Percentile of inhibition ± S.E.M against BChE” value [1] does the source give for `COc1cc2c(cc1OC)C(=O)C(CC1CCN(Cc3ccccc3)CC1)C2` (centres unmarked) [Donepezil, donepezil hydrochloride, reference compound] here?
A: The value was 90.33 ± 4.16%.

Q: Which “inhibition towards butyrylcholinesterase” value [8] does the source give for `CC(C)=CCOc1c2occc2cc2ccc(=O)oc12` [imperatorin] here?
A: The value was “strong inhibition”.

Q: With `CCCOC(=O)c1cc(O)c(O)c(O)c1` [Propyl gallate, reference compound] as the molecule, how does the “IC50 values ± SD” value [2] read?
A: The value was 3.44 ± 2.05 µg/mL (≈ 16.2 µM).

Q: With `CC(C)=CCOc1c2ccoc2cc2oc(=O)ccc12` [isoimperatorin] as the molecule, how does the “inhibition towards butyrylcholinesterase” value [8] read?
A: The value was “strong inhibition”.
